Test results: article PMC10545747, “Development of cyclopeptide inhibitors of cGAS targeting protein-DNA interaction and phase separation” (Nature Communications, 2023)
Several values for one entry are separate records, joined by “and”; a condition that tells them apart may be missing. Equal entries are not always repeated. Entries after “also recorded” stand apart in the source; their conditions may differ. Square brackets hold non-standard residues; d marks the D form. Peptide text beside a SMILES is read from it.

What was measured:
Trex1^-/- mice = Trex1^-/- mice model of autoimmune disease (survival, H&E, heart qPCR, antinuclear antibody); assay type: in vivo, mouse; set-up: Score per animal, Heart (Fig. 7d) / Score per animal, Stomach (Fig. 7d) / Score per animal, Tongue (Fig. 7d) / Score per animal, Kidney (Fig. 7d) / Score per animal, Muscle (Fig. 7d): scale not given here; Ifnb1 mRNA level (Fig. 7e) / Cxcl10 mRNA level (Fig. 7e) / Il6 mRNA level (Fig. 7e): unit not given here
From the text: Aberrant accumulation of cytosolic self-dsDNA caused by loss-of-function mutations in Trex1 leads to overactivation of cGAS-STING pathway, which is associated with autoinflammatory diseases. To evaluate whether the optimized analogue XQ2B inhibits the overactivation of cGAS-STING pathway due to Trex1 deficiency, we first tested the effects of XQ2B on the expression of Ifnb1, Cxcl10 and Il6 in BMDMs harvested from Trex1^-/- mice (Supplementary Fig. 9a, b). […] We next evaluated the anti-inflammatory effect of XQ2B in Trex1^-/- mice. XQ2B (10 mg/kg) was intravenously injected into mice every other day. Six animals from each group were sacrificed on day seven to assess tissue pathology, and the rest (10 mice per group) were used to analyze survival for up to 11 days (Fig. 7b). […] Mice were killed and tissues were collected on day seven for histology and mRNA analysis.
(§1) C57BL/6 6–8 weeks old wild type (WT) mice were purchased from Gempharmatech. C57BL/6 Trex1^+/- mice were purchased from Cyagen. Trex1^-/- mice were generated by further mating the male and female Trex1^+/- mice, and 8-week-old male Trex1^-/- mice were used in the experiment. Mice were housed in groups of up to 5 mice/cage at 18 °C − 24 °C ambient temperatures with 40–60% humidity. Mice were maintained on a 12 h light/ dark cycle 6 am to 6 pm. Food and water were available ad libitum. Femurs and tibias were removed from sex-matched mice of 6–8 weeks old, and the ends were clipped. Marrow was pushed from bones by using a syringe, and cell clumps were broken apart into cell particles by pipetting in PBS, and passed through a 70 μm cell strainer. Cells were resuspended in red blood cell lysis buffer (Solarbio) for 5 min after being centrifuged with 200 × g for 5 min, and were resuspended in cell culture media (DMEM) with an additional M-CSF (50 ng/ml) after centrifugation, and then were seeded into a 12-well plate. Half of the cell culture media was replaced with a fresh medium on the third day, and performed a complete media change on the fifth day. BMDMs were used for subsequent experiments after the seventh day. All the animal experiments in these studies were approved and overseen by the ethics committee of the Laboratory Animal Center of Peking University Shenzhen Graduate School in accordance with the Policy on the Care, Welfare, and Treatment of Laboratory Animals. The assigned approval or accreditation number is AP0020005.
Tissues were resected and fixed successively in 4% paraformaldehyde, and embedded in paraffin according to the standard procedure, and then sectioned into 10-μm slices and placed on positively charged microscope slides. Sections of the brain were subjected to immunohistochemical (IHC) staining with an anti-HSV-1 antibody (Abcam, 1:100) and HRP-conjugated anti-rabbit IgG antibody (Cell Signaling, Cat# 7074, 1:200) according to standard procedures. Sections of the heart, stomach, tongue, kidney and muscle were stained with hematoxylin and eosin. Tissue sections were visualized using an Olympus IX73 microscope (20× Objective).
Anti-nuclear antibodies were performed with 1:160 diluted sera by using a FLUORO HEPANA TEST kit (MBL BEIJING BIOTECH) according to the manufacturer’s protocols.

[1] = tested on: primary bone marrow-derived macrophages (BMDMs) from C57BL/6 mice; test: qPCR of Ifnb1/Cxcl10 mRNA in BMDMs (ISD or HSV-1); assay type: cell-based, mouse
Description: The indicated cells were stimulated with either ISD (Sangon Biotech), HSV-1 (Provided by Dr. Zhengfan Jiang), HSV60mer (Sangon Biotech), SATE-cddA[70], 2’3’-cGAMP (Invivogen, Cat# tlrl-nacga23-1), ADU-S100 (MedChemExpress, Cat# HY-12885A) or Poly(I:C) (Invivogen, Cat# tlrl-pic) after XQ2 or XQ2B treatment. Total RNA was isolated from indicated cells that incubated with the drugs for indicated time or mice tissues by using NucleoZOL reagent (MACHEREY-NAGEL) according to the manufacturer’s instructions. The quantifications of mRNA levels were carried out by real-time PCR using a PerfectStart® Uni RT&qPCR Kit (TransGen Biotech) on the QuantStudio 5 qPCR machine (Applied Biosystems). Samples were carried out in triplicate and the target CT values were normalized to GAPDH CT values. Primers of qPCR used in this study can be found in Supplementary Table S2.
as §1
Supplementary Fig. 2. […] (a, b) THP1 cells were
(c) L929, p = 0.0005 (Ifnb1),
BMDMs, p = 0.0001 (Ifnb1), p < 0.0001 (Cxcl10).
representative of three independent experiments in (a-g). (Data are presented as mean ± SD, n = 3 independent
Source data are provided as a Source Data file.

[2] = 10 mg/kg i.v. every other day, day seven

CC(C)C[C@@H]1NC(=O)[C@H](CCCNC(=N)N)NC(=O)[C@H](C(C)C)NC(=O)[C@@H]2CCCN2C(=O)[C@@H](Cc2ccccc2)NC(=O)[C@H](CC(C)C)NC(=O)[C@H](CCCNC(=N)N)NC(=O)[C@H]([C@@H](C)O)NC(=O)[C@H](C)NC(=O)[C@@H](Cc2ccccc2)NC1=O [XQ2B] (cyclo([dF]ATRL[dF]PVRL))
serum level of antinuclear antibody (Trex1^-/- mice; 10 mg/kg i.v. every other day): markedly reduced by XQ2B treatment
heart Ifnb1, Cxcl10 and Il6 mRNA (Trex1^-/- mice; [2]): significantly suppressed the mRNA level of Ifnb1, Cxcl10 and Il6 caused by Trex1 deficiency
tissue inflammation, H&E (Trex1^-/- mice; [2]): ameliorates rather than reverses the systemic inflammation in Trex1-/- mice; also recorded: significantly attenuated the inflammation
survival of Trex1^-/- mice (Trex1^-/- mice; 10 mg/kg i.v. every other day, up to 11 days, n = 10, 3 of 10 untreated died): none of the 10 mice treated with XQ2B died during treatment
Score per animal, Heart (Fig. 7d) (Trex1^-/- mice; KO(XQ2B)): 5 (2×) and 8 (2×) and 6 and 4 and 7 and 9
Score per animal, Kidney (Fig. 7d) (Trex1^-/- mice; KO(XQ2B)): 3 (2×) and 6 and 5 (2×) and 2 and 4 and 7
Score per animal, Muscle (Fig. 7d) (Trex1^-/- mice; KO(XQ2B)): 4 (3×) and 2 and 6 and 3 (2×) and 5
Score per animal, Stomach (Fig. 7d) (Trex1^-/- mice; KO(XQ2B)): 3 and 8 (2×) and 6 and 9 and 5 (2×) and 7
Score per animal, Tongue (Fig. 7d) (Trex1^-/- mice; KO(XQ2B)): 3 and 7 (2×) and 8 and 5 (2×) and 6 and 4
Cxcl10 mRNA level (Fig. 7e) (Trex1^-/- mice; Trex1 KO+XQ2B, per animal): 99.6532 and 144.536 and 126.503 and 174.75 and 186.166
Ifnb1 mRNA level (Fig. 7e) (Trex1^-/- mice; Trex1 KO+XQ2B, per animal): 12.3782 and 6.326 and 6.444 and 5.852 and 6.524
Il6 mRNA level (Fig. 7e) (Trex1^-/- mice; Trex1 KO+XQ2B, per animal): 3.8548 and 4.605 and 4.215 and 10.789 and 5.351

CC(C)C[C@@H]1NC(=O)[C@H](CCCNC(=N)N)NC(=O)[C@H](C(C)C)NC(=O)[C@@H]2CCCN2C(=O)[C@@H](Cc2ccccc2)NC(=O)[C@H](CC(C)C)NC(=O)[C@H](CCCNC(=N)N)NC(=O)[C@H](C(C)C)NC(=O)[C@H](C)NC(=O)[C@@H](Cc2ccccc2)NC1=O [XQ2, Cyclo (LfAVRLfPVR)] (cyclo(L[dF]AVRL[dF]PVR))
Ifnb1 and Cxcl10 expression induced by ISD and HSV-1 ([1]; 10 μM): significantly inhibited the expression of Ifnb1 and its downstream gene Cxcl10
Cxcl10 mRNA (Fig. S2d) ([1]; HSV-1+XQ2): 143.811 and 140.79 and 131.38
Ifnb1 mRNA (Fig. S2d) ([1]; HSV-1+XQ2): 30.4765 and 34.353 and 35.6259
Cxcl10 mRNA (Fig. S2c) ([1]; ISD+XQ2): 62.8779 and 59.0359 and 62.3708
Ifnb1 mRNA (Fig. S2c) ([1]; ISD+XQ2): 709.298 and 846.919 and 741.167
Cxcl10 mRNA (Fig. S2c) ([1]; XQ2 alone): 1.406 and 1.738 and 1.597
Cxcl10 mRNA (Fig. S2d) ([1]; XQ2 alone): 1.406 and 1.738 and 1.597
Ifnb1 mRNA (Fig. S2c) ([1]; XQ2 alone): 0.9266 and 0.5519 and 1.072
Ifnb1 mRNA (Fig. S2d) ([1]; XQ2 alone): 0.9266 and 0.5519 and 1.072
